Values quoted from earlier work in patent US8551985B2, “Carbinol derivatives having heterocyclic linker” (Kowa Company, Ltd., priority 2009, dated 2013).

Target: T1, LXRβ (Homo sapiens, UniProt P55055)
T1 sequence (P55055 1-460): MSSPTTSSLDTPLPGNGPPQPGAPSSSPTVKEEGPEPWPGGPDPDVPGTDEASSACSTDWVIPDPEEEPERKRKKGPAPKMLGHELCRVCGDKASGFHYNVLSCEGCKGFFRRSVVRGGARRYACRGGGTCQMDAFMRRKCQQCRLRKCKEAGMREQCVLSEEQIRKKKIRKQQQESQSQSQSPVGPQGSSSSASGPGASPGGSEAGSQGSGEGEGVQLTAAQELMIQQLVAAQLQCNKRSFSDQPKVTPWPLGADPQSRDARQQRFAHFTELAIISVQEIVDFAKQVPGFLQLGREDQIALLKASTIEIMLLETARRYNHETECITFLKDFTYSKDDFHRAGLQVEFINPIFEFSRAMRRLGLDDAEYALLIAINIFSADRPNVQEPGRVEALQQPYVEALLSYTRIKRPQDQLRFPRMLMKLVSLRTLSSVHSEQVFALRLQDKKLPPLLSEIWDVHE

SMILES: O=C(O)Cc1ccc(COc2cccc(-c3c(Cc4ccccc4)cnc4c(C(F)(F)F)cccc34)c2)cc1 [WAY-254011]
- LXRβ-selective binding affinity (α/β ratio): 1 to 5
